According to PMC6362004, “Minor sequence modifications in temporin B cause drastic changes in antibacterial potency and selectivity by fundamentally altering membrane activity” (Scientific Reports, 2019):
Converted amounts (≈) assume the structure as drawn. Peptide text beside a SMILES is read from it.

How the values were obtained:
[1] = tested on: Pseudomonas aeruginosa PAO1; format: cell-based; conditions: PAO1, 18 h
Method: (§1) The antibacterial activity of the peptides studied was assessed through a modified two-fold broth microdilution assay, as described before. Briefly, a two-fold dilution of peptide stock solutions was performed in either non-cation adjusted Müller-Hinton broth (MHB) or Tryptic Soy broth (TSB) in a 96-well polypropylene microtiter plate. Then, 100 µl of bacterial suspension (back diluted from overnight cultures to an A600 of 0.01) were added to 100 µl of peptide solution in each well of the plate. Growth and sterility controls were present for each experiment. The plate was incubated at 37 °C for 18 hours without shaking and the MIC was defined as the lowest concentration where no visible growth could be detected by measuring the absorbance (A600) on an Omega plate reader.

[2] = tested on: EMR Staphylococcus aureus−15 NCTC 13616; format: cell-based; conditions: NCTC 13616, 18 h
Method: as §1

[3] = tested on: EMR Staphylococcus aureus-16 NCTC 13277; format: cell-based; conditions: NCTC 13277, 18 h
Method: as §1

[4] = tested on: Acinetobacter baumanii AYE; format: cell-based; conditions: 18 h
Method: as §1

[5] = tested on: E. coli cytoplasmic membrane; conditions: cited from earlier work
From the text: Here we investigated whether a combined biophysical approach is capable of discriminating the species specific antibacterial mechanisms of action between three analogues of temporin B. Although structures for the three peptides solved in anionic SDS were noticeably different, when applied to model membranes, little difference in conformation could be discerned in the steady-state. To address this, we developed an approach using the Port-a-Patch® tool from Nanion Technologies (Munich, Germany) and correlated the findings obtained from patch-clamp analysis to the primary sequence and the biophys ...

Gram-negative bacteria = conditions: cited from earlier work
[6] = tested on: MS Staphylococcus aureus NCTC 6571; format: cell-based; conditions: NCTC 6571, 18 h
Method: as §1

[7] = tested on: Pseudomonas aeruginosa NCTC 13437; format: cell-based; conditions: NCTC 13437, 18 h
Method: as §1

[8] = tested on: VS Enterococcus faecalis NCTC 775; format: cell-based; conditions: NCTC 775, 18 h
Method: as §1

[9] = tested on: VR Enterococcus faecalis NCTC 12201; format: cell-based; conditions: NCTC 12201, 18 h
Method: as §1

Compound	MIC, peptide concentration [1] [µg/mL]	MIC, peptide concentration [2] [µg/mL]	MIC, peptide concentration [3] [µg/mL]	also measured
CC[C@H](C)[C@H](NC(=O)[C@@H]1CCCN1C(=O)[C@H](CC(C)C)NC(=O)[C@@H](N)Cc1ccccc1)C(=O)N[C@H](C(=O)NCC(=O)N[C@@H](CC(C)C)C(=O)N[C@@H](CC(C)C)C(=O)N[C@@H](CCCCN)C(=O)N[C@@H](CO)C(=O)N[C@@H](CC(C)C)C(=O)N[C@@H](CC(C)C)C(=O)N[C@@H](CCCCN)C(N)=O)C(C)C [Temporin B L1FK] (H-FLPIVGLLKSLLK-NH2)	128 (≈ 88.9 µM)	16 (≈ 11.1 µM)	16 (≈ 11.1 µM)	MIC, peptide concentration [4]: 8 µg/mL (≈ 5.56 µM)
LL-37: human antimicrobial peptide	–	–	–	Time to permeabilization of the E. coli cytoplasmic membrane and induction of oxidative stress [5]: around 25 minutes
temporin L	–	–	–	MIC (Gram-negative bacteria): 2 to 20 µM
CC[C@H](C)[C@H](NC(=O)[C@@H]1CCCN1C(=O)[C@H](CC(C)C)NC(=O)[C@@H](N)CC(C)C)C(=O)N[C@H](C(=O)NCC(=O)N[C@@H](CC(N)=O)C(=O)N[C@@H](CC(C)C)C(=O)N[C@@H](CC(C)C)C(=O)N[C@@H](CCCCN)C(=O)N[C@@H](CO)C(=O)N[C@@H](CC(C)C)C(=O)N[C@@H](CC(C)C)C(N)=O)C(C)C [Temporin B] (H-LLPIVGNLLKSLL-NH2)	>128	–	32 (≈ 23 µM)	MIC, peptide concentration [6]: 16 µg/mL (≈ 11.5 µM)
CC[C@H](C)[C@H](NC(=O)[C@@H]1CCCN1C(=O)[C@H](CC(C)C)NC(=O)[C@H](CC(C)C)NC(=O)[C@H](CCCCN)NC(=O)[C@@H](N)CCCCN)C(=O)N[C@H](C(=O)N[C@@H](C)C(=O)N[C@@H](CC(N)=O)C(=O)N[C@@H](CC(C)C)C(=O)N[C@@H](CC(C)C)C(=O)N[C@@H](CCCCN)C(=O)N[C@@H](CO)C(=O)N[C@@H](CC(C)C)C(=O)N[C@@H](CC(C)C)C(N)=O)C(C)C [Temporin B KKG6A] (H-KKLLPIVANLLKSLL-NH2)	–	>128	>128	MIC, peptide concentration [7]: >128 µg/mL; MIC, peptide concentration [8]: >128 µg/mL; MIC, peptide concentration [9]: >128 µg/mL
